Earlier results in patent publication US20060264381A1, “Methods of treating obsessive compulsive disorder” (priority 2005, published 2006).

How the values were obtained:
[1] = tested on: synaptosomes prepared from the cortex of Fmr1 KO mice
[2] = tested on: Gp1 mGluR5 on cultured hippocampal neurons
[3] = tested on: cultured cortical neurons; conditions: cultures prepared from Fmr1 knockout (KO) mice lacking FMRP
[4] = tested on: Drosophila mGluR, DmGluRA; conditions: flies lacking dfmr1 raised with food containing drug
mGluR5 = biological target: T1, mGluR5 (Mus musculus, UniProt Q3UVX5); conditions: slices from the Fmr1 KO mouse
T1 construct: from tissue; host or cells: brain slices from Fmr1 knockout mouse (hippocampal area CA3 by context)
T1 sequence (Q3UVX5 19-1203): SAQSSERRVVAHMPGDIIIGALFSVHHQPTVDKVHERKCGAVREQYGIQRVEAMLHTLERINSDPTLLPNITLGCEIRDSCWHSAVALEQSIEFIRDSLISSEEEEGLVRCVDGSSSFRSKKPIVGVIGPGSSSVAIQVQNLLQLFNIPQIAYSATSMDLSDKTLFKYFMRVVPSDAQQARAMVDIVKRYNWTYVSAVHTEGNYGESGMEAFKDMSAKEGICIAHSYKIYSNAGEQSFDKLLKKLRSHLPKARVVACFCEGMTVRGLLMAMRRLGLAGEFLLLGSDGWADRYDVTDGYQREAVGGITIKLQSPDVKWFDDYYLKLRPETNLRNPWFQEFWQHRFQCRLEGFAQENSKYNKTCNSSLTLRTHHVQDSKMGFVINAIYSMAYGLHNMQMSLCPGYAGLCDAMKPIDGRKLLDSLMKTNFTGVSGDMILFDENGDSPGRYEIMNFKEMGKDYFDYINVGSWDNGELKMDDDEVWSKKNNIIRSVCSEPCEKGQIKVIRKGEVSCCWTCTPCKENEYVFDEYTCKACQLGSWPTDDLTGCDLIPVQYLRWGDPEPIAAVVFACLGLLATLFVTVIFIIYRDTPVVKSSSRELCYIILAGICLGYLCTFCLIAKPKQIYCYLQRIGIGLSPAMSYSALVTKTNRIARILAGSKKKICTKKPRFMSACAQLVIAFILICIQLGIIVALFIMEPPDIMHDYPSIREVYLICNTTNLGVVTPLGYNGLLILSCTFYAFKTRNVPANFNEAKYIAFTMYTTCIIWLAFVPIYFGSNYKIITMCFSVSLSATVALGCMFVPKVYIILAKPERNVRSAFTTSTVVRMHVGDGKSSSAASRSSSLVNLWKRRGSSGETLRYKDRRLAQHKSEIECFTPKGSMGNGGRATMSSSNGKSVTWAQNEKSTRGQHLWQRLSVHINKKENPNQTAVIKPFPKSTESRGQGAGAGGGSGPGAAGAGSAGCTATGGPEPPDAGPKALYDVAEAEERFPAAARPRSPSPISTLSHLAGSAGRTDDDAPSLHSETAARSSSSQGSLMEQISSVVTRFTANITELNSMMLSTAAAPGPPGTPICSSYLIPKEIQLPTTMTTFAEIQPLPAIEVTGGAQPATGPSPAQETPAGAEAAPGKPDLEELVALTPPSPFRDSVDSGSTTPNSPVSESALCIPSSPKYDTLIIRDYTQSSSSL

Structure (SMILES)	polyribosome assembly [1]	delivery of FMRP to dendrites ([2]; cultured hippocampal neurons)	loss of AMPA receptors from synapses ([2]; cultured hippocampal neurons)	proportion of long, thin dendritic spines ([2]; prolonged treatment of hippocampal neurons)	PSD-95 levels [3]	rescue of phenotypes in mutant flies (altered courtship behavior, decreased memory in conditioned courtship assay, mushroom body structure) [4]	ictal-like activity emerging spontaneously in slices (mGluR5)
N[C@@H](C(=O)O)c1cc(O)cc(O)c1 (racemic) [DHPG, (R,S)-3,5-dihydroxyphenylglycine]	fails to stimulate polyribosome assembly	triggers the delivery of FMRP to dendrites	stimulates the loss of AMPA receptors from synapses	increased the proportion of long, thin dendritic spines	fails to increase PSD-95 levels	–	–
Cc1cccc(C#Cc2ccccc2)n1 [MPEP, 2-methyl-6-(phenylethynyl)-pyridine]	–	–	–	–	–	rescued	reversed
